From US6737383B1, “Herbicidal oxadiazolidines” (priority 1999, dated 2004)

Key:
giant foxtail = test: Test B pre/postemergence giant foxtail; assay type: in vivo, Setaria faberii
Summary of the method: (§1)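 Test chemicals in a non-phytotoxic solvent mixture with surfactant were sprayed preemergence onto planted seeds and postemergence onto plants 2 to 18 cm tall (1- to 4-leaf stage). After twelve to sixteen days in a greenhouse, injury was visually rated against untreated controls from 0 (no effect) to 10 (complete control).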

corn = test: Test B pre/postemergence corn; assay type: in vivo, Zea mays
Summary of the method: as §1

rape = test: Test B pre/postemergence rape; assay type: in vivo, Brassica napus
Summary of the method: as §1

surinam grass = test: Test B pre/postemergence surinam grass; assay type: in vivo, Brachiaria decumbens
Summary of the method: as §1

purple nutsedge = test: Test B pre/postemergence purple nutsedge; assay type: in vivo, Cyperus rotundus
Summary of the method: as §1

wheat = test: Test B pre/postemergence wheat; assay type: in vivo, Triticum aestivum
Summary of the method: as §1

soybean = test: Test B pre/postemergence soybean; assay type: in vivo, Glycine max
Summary of the method: as §1

pigweed = test: Test B pre/postemergence pigweed; assay type: in vivo, Amaranthus retroflexus
Summary of the method: as §1

crabgrass = test: Test B pre/postemergence crabgrass; assay type: in vivo, Digitaria sanguinalis
Summary of the method: as §1

sugar beet = test: Test B pre/postemergence sugar beet; assay type: in vivo, Beta vulgaris
Summary of the method: as §1

wild oat = test: Test B pre/postemergence wild oat; assay type: in vivo, Avena fatua
Summary of the method: as §1

cocklebur = test: Test B pre/postemergence cocklebur; assay type: in vivo, Xanthium strumarium
Summary of the method: as §1

blackgrass = test: Test B pre/postemergence blackgrass; assay type: in vivo, Alopecurus myosuroides
Summary of the method: as §1

morningglory = test: Test B pre/postemergence morningglory; assay type: in vivo, Ipomoea hederacea
Summary of the method: as §1

velvetleaf = test: Test B pre/postemergence velvetleaf; assay type: in vivo, Abutilon theophrasti
Summary of the method: as §1

bedstraw = test: Test B pre/postemergence bedstraw; assay type: in vivo, Galium aparine
Summary of the method: as §1

[1] = Preemergence, Rate 62 g/ha, scale of 0 to 10 where 0 is no effect and 10 is complete control
[2] = Preemergence, Rate 250 g/ha, scale of 0 to 10 where 0 is no effect and 10 is complete control
[3] = Preemergence, Rate 500 g/ha, scale of 0 to 10 where 0 is no effect and 10 is complete control
[4] = Rate 125 g/ha, Preemergence, scale of 0 to 10 where 0 is no effect and 10 is complete control
[5] = Rate 500 g/ha, Postemergence, scale 0 to 10, 0 no effect, 10 complete control
[6] = Rate 62 g/ha, Postemergence, scale of 0 to 10 where 0 is no effect and 10 is complete control
[7] = Rate 125 g/ha, Postemergence, scale 0 to 10

CC(C)N(C(=O)n1oc(=O)n(C(C)C(=O)c2ccccc2)c1=O)c1ccc(F)cc1 (stereo not shown) [Compound 260]
Giant foxtail plant response rating (giant foxtail; [1]): 3 | Giant foxtail plant response rating (giant foxtail; [2]): 8 | Plant response rating, Giant foxtail (giant foxtail; [3]): 10 | Giant foxtail plant response rating (giant foxtail; [4]): 7 | Plant response rating (0 to 10; 0 is no effect, 10 is complete control), Giant foxtail (giant foxtail; Rate 250 g/ha, Postemergence): 0 | Giant foxtail plant response rating (giant foxtail; [5]): 0 | Corn plant response rating (corn; [1]): 0 | Corn plant response rating (corn; [2]): 0 | Plant response rating, Corn (corn; [3]): 0 | Corn plant response rating (corn; [6]): 0 | Corn plant response rating (corn; [7]): 0 | Corn plant response rating (corn; [4]): 0 | Plant response rating (0 to 10; 0 is no effect, 10 is complete control), Corn (corn; Rate 250 g/ha, Postemergence): 0 | Corn plant response rating (corn; [5]): 0 | Rape plant response rating (rape; [1]): 0 | Rape plant response rating (rape; [2]): 0 | Plant response rating, Rape (rape; [3]): 0 | Rape plant response rating (rape; [4]): 0 | Plant response rating (0 to 10; 0 is no effect, 10 is complete control), Rape (rape; Rate 250 g/ha, Postemergence): 0 | Rape plant response rating (rape; [5]): 0 | B. signalgrass plant response rating (surinam grass; [1]): 0 | B. signalgrass plant response rating (surinam grass; [2]): 0 | Plant response rating, B. signalgrass (surinam grass; [3]): 3 | B. signalgrass plant response rating (surinam grass; [6]): 0 | B. signalgrass plant response rating (surinam grass; Rate 125 g/ha, Postemergence, scale 0 (no effect) to 10 (complete control)): 0 | B. signalgrass plant response rating (surinam grass; [4]): 0 | Plant response rating (0 to 10; 0 is no effect, 10 is complete control), B. signalgrass (surinam grass; Rate 250 g/ha, Postemergence): 0 | B. signalgrass plant response rating (surinam grass; [5]): 0 | Nutsedge plant response rating (purple nutsedge; [1]): 0 | Nutsedge plant response rating (purple nutsedge; [2]): 0 | Nutsedge plant response rating (purple nutsedge; [4]): 0 | Plant response rating (0 to 10; 0 is no effect, 10 is complete control), Nutsedge (purple nutsedge; Rate 250 g/ha, Postemergence): 0 | Nutsedge plant response rating (purple nutsedge; [5]): 0 | Wheat plant response rating (wheat; [1]): 0 | Wheat plant response rating (wheat; [2]): 0 | Plant response rating, Wheat (wheat; [3]): 0 | Wheat plant response rating (wheat; [4]): 0 | Wheat plant response rating (wheat; [5]): 0 | Soybean plant response rating (soybean; [1]): 0 | Soybean plant response rating (soybean; [2]): 0 | Plant response rating, Soybean (soybean; [3]): 0 | Soybean plant response rating (soybean; [4]): 0 | Soybean plant response rating (soybean; [5]): 1 | Redroot pigweed plant response rating (pigweed; [1]): 0 | Redroot pigweed plant response rating (pigweed; [2]): 4 | Plant response rating, Redroot pigweed (pigweed; [3]): 4 | Redroot pigweed plant response rating (pigweed; [4]): 0 | Plant response rating (0 to 10; 0 is no effect, 10 is complete control), Redroot pigweed (pigweed; Rate 250 g/ha, Postemergence): 3 | Redroot pigweed plant response rating (pigweed; [5]): 6 | Crabgrass plant response rating (crabgrass; [1]): 0 | Crabgrass plant response rating (crabgrass; [2]): 6 | Plant response rating, Crabgrass (crabgrass; [3]): 9 | Crabgrass plant response rating (crabgrass; [4]): 2 | Plant response rating (0 to 10; 0 is no effect, 10 is complete control), Crabgrass (crabgrass; Rate 250 g/ha, Postemergence): 0 | Crabgrass plant response rating (crabgrass; [5]): 0 | Sugarbeets plant response rating (sugar beet; [1]): 0 | Sugarbeets plant response rating (sugar beet; [2]): 0 | Plant response rating, Sugarbeets (sugar beet; [3]): 0 | Sugarbeets plant response rating (sugar beet; [4]): 0 | Sugarbeets plant response rating (sugar beet; [5]): 3 | Wild oats plant response rating (wild oat; [1]): 0 | Wild oats plant response rating (wild oat; [2]): 0 | Plant response rating, Wild oats (wild oat; [3]): 0 | Wild oats plant response rating (wild oat; [4]): 0 | Wild oats plant response rating (wild oat; [5]): 0 | Cocklebur plant response rating (cocklebur; [1]): 0 | Cocklebur plant response rating (cocklebur; [2]): 0 | Plant response rating, Cocklebur (cocklebur; [3]): 0 | Cocklebur plant response rating (cocklebur; [6]): 0 | Cocklebur plant response rating (cocklebur; [7]): 0 | Cocklebur plant response rating (cocklebur; [4]): 0 | Plant response rating (0 to 10; 0 is no effect, 10 is complete control), Cocklebur (cocklebur; Rate 250 g/ha, Postemergence): 0 | Cocklebur plant response rating (cocklebur; [5]): 0 | Blackgrass plant response rating (blackgrass; [1]): 0 | Blackgrass plant response rating (blackgrass; [2]): 2 | Plant response rating, Blackgrass (blackgrass; [3]): 3 | Blackgrass plant response rating (blackgrass; [6]): 0 | Blackgrass plant response rating (blackgrass; [7]): 0 | Blackgrass plant response rating (blackgrass; [4]): 0 | Plant response rating (0 to 10; 0 is no effect, 10 is complete control), Blackgrass (blackgrass; Rate 250 g/ha, Postemergence): 0 | Blackgrass plant response rating (blackgrass; [5]): 0 | Morningglory plant response rating (morningglory; [1]): 0 | Morningglory plant response rating (morningglory; [2]): 0 | Plant response rating, Morningglory (morningglory; [3]): 0 | Morningglory plant response rating (morningglory; [4]): 0 | Plant response rating (0 to 10; 0 is no effect, 10 is complete control), Morningglory (morningglory; Rate 250 g/ha, Postemergence): 3 | Morningglory plant response rating (morningglory; [5]): 4 | Velvetleaf plant response rating (velvetleaf; [1]): 0 | Velvetleaf plant response rating (velvetleaf; [2]): 0 | Plant response rating, Velvetleaf (velvetleaf; [3]): 0 | Velvetleaf plant response rating (velvetleaf; [4]): 0 | Velvetleaf plant response rating (velvetleaf; [5]): 1 | Bedstraw plant response rating (bedstraw; [1]): 0 | Plant response rating, Bedstraw (bedstraw; [3]): 5 | Bedstraw plant response rating (bedstraw; [6]): 6 | Bedstraw plant response rating (bedstraw; [7]): 7 | Bedstraw plant response rating (bedstraw; [4]): 0
